From US10975303B2, “Additive for soil conditioning and an agricultural composition containing said additive for plant growth” (priority 2019, dated 2021)

Assays:
Assay type in all cases: in vivo
[1] = system: onion; assay: Growth, yield and yield attributes of onion (Test-3)
Procedure: The method of testing effect of additive 10 on different properties of soil was similar to the method as disclosed in Test-1 of Experiment-2, except time period which is 2 months instead of 9 months. The effect of additive was tested on soil using additive 10.
The effect of the additive 10, agricultural composition and agricultural composition along with fertilizer prepared in accordance with the present disclosure on the growth of onion was studied. Additive 10 prepared in Experiment 1 was used for the study. The study was conducted in the presence and in absence of the additive of the present disclosure to determine the effect of the additive on onion. Further, the effect of agricultural composition and agricultural composition along with fertilizer was studied. The study was carried out at a village in Bhavnagar District (Gujarat). The study was carried out in Two Plots: one plot, the additive of the present disclosure application and the other plot, urea application under Spacing of two rows and plants (15 cm×10 cm).
The effect of additive 10, agricultural composition and agricultural composition along with fertilizer on growth, yield and yield attributes of onion was carried and the comparative results obtained are summarized in Table-5a.

[2] = system: pigeon pea (Toor); assay: Comparative report of parameters for pigeon pea (Toor), Table 7 (protein, energy, ash, minerals); settings: pigeon pea (Toor) trial
[3] = system: Pigeon pea crop; assay: Yield and yield attributes of pigeon pea (Test-5)
Procedure: The study was carried out with and without the additive of the present disclosure in different plots at a village in […] District (Gujarat). The Pigeon pea crop was planted in 90 cm between two rows and 20 cm of two plants under fields. The result pertaining to plant height, number of branches per plant, number of pods per plant, grain and haulm yield of pigeon pea crop recorded at harvest as influenced by additive of the present disclosure is summarized in Table-7a. Further, the effect of the plant growth regulator and agricultural composition and the comparative results obtained are summarized in Table-7b.

Work on `NC(N)=O` [urea] yielded an Ave. bulb weight [1] of 51.50 g, a Bulb yield [1] of 34.30 t/ha and a Leaf area [1] of 930 cm². The Plant height [1] was 56.00 cm, the Energy [2] was 355.01 Kcal/100 gm and the “Total Ash” value ([2]; LOQ 0.1) was 3.94 gm/100 gm. The “Total Protein” value ([2]; LOQ 0.5) was 16.47 gm/100 gm, the “Calcium (as Ca)” value ([2]; LOQ 2.5) was 508.85 mg/kg and the “Iron (as Fe)” value ([2]; LOQ 2.5) was 11.48 mg/kg. For the same compound, the “Manganese (as Mn)” value ([2]; LOQ 2.5) was 4.71 mg/kg, the “Zinc (as Zn)” value ([2]; LOQ 2.5) was 10.99 mg/kg and the Grain yield [3] was 1060 kg/ha. For the same compound, the Haulm yield [3] was 1285 kg/ha, the “Number of branches per plant” value ([3]; at harvest) was 10.0 and the “Number of pods per plant” value ([3]; at harvest) was 172.0. For the same compound, the Plant height ([3]; at harvest) was 133.0 cm.
